Data reported in patent US5300672A (priority 1992, dated 1994).
Where two headings read alike, the source gives them in different places.

Columns and labels:
[1] = system: Erysiphe graminis (f. sp. tritici); assay: whole plant or invertebrate; assay type: in vivo
[2] = system: Piricularia oryzae; assay: whole plant or invertebrate; assay type: in vivo; conditions: for pest or weed control at 100 ppm: read-out: % Control RB, application rate 100 ppm; for pest or weed control at 200 ppm: read-out: % Control RB, application rate 200 ppm
[3] = system: Phytophthora infestans; assay: whole plant or invertebrate; assay type: in vivo; conditions: for pest or weed control at 100 ppm / pest or weed control at 6 ppm / pest or weed control at 200 ppm: Phytophthora infestans, in Solanum lycopersicum, 96 h
[4] = system: Pellicularia filamentosa (f. sp. sasiki); assay: whole plant or invertebrate; assay type: in vivo; conditions: for pest or weed control at 100 ppm / pest or weed control at 200 ppm: 120 h, read-out: % Control RSB
[5] = system: Pseudomonas fluorescens; assay: Alternate Minimum Inhibitory Concentrations Test (Table 4), Ps.fl; assay type: cell-based; conditions: Table 4 alternate test, 250 ppm to 0.8 ppm in TSB, 72 hours, 30° C.; for MIC: Pseudomonas fluorescens, read-out: MIC Ps.fl
Description: The compounds of Examples 1-8, 12-26, 28-33, 36-37, 39-42, 44-109, 111-114, and 116-120 were subjected also to the following alternate biocidal activity test procedures with the results as indicated in Table 4.
The MIC test measures the viability of Pseudomonas fluorescens inoculum in TSB when exposed for 72 hours to varying concentrations of test compound.
A 125 μl aliquot of 10,000 ppm test compound in acetone was added to 4.88 ml of TSB to provide a 250 ppm solution. From this solution, 100 μL was transferred to the first row of two microtiter plate columns. Both replicates and five additional compounds were all serially diluted 1:1 to a final concentration of 0.8 ppm in TSB.
Inoculation was accomplished by diluting a 24 hr Ps fl culture, four mls per 36 mls of phosphate buffer solution. A Dynatech autoinoculator was used to transfer 1.5 μl of this cell suspension to the microtiter plates. The plates were incubated at 30° C. for 3 days before the lowest concentration at which no growth occurs was recorded in the database.

[6] = system: Puccinia recondita (f. sp. tritici Races PKB and PLD); assay: whole plant or invertebrate; assay type: in vivo; conditions: for pest or weed control at 100 ppm / pest or weed control at 200 ppm: Puccinia recondita, 240 h, read-out: % Control WLR
[7] = Blumeria graminis, read-out: % Control WPM
[8] = read-out: % Control TLB, application rate 100 ppm
[9] = Pyricularia oryzae, read-out: % Control RB, application rate 25 ppm
[10] = read-out: % Control TLB, application rate 200 ppm

CCCCCCCCNC(=O)/C=C\SC(=O)c1ccccc1 [Compound 1, N-octyl-cis-3-(benzoylthio)acrylamide]
pest or weed control at 100 ppm [1, 7]: 0% | pest or weed control at 100 ppm ([2]; Pyricularia oryzae): 0% | pest or weed control at 100 ppm [3, 8]: 100% | pest or weed control at 100 ppm [4]: 0% | MIC [5]: > 250 µg/mL | pest or weed control at 100 ppm [6]: 0%

CCCCCCCCNC(=O)/C=C\SC(=O)CC(=O)OCC [Compound 2, N-octyl-cis-3-(ethylmalonylthio)acrylamide]
pest or weed control at 100 ppm [1, 7]: 0% | pest or weed control at 6 ppm ([2]; Pyricularia oryzae, read-out: % Control RB, application rate 6 ppm): 50% | pest or weed control at 100 ppm ([3]; read-out: % Control TLB): 90% | pest or weed control at 100 ppm [4]: 0% | MIC [5]: > 250 µg/mL | pest or weed control at 100 ppm [6]: 0%

CCCCCCCCNC(=O)/C=C\SC(=O)c1cccc(OC)c1 [Compound 8, N-octyl-cis-3-[(3-methoxybenzoyl)thio]acrylamide]
pest or weed control at 100 ppm [1, 7]: 0% | pest or weed control at 100 ppm ([2]; Pyricularia oryzae): 80% | pest or weed control at 100 ppm ([3]; read-out: % Control TLB): 80% | pest or weed control at 100 ppm [4]: 0% | MIC [5]: > 250 µg/mL | pest or weed control at 100 ppm [6]: 0%

CCCCCCCCNC(=O)/C=C\SC/C=C/c1ccccc1 [Compound 13, N-octyl-cis-3-[(trans-3-phenylprop-2-ene)thio]acrylamide]
pest or weed control at 100 ppm [1, 7]: 0% | pest or weed control at 100 ppm ([2]; Pyricularia oryzae): 0% | pest or weed control at 100 ppm ([3]; read-out: % Control TLB): 80% | pest or weed control at 100 ppm [4]: 0% | MIC [5]: > 250 µg/mL | pest or weed control at 100 ppm [6]: 0%

CCCCCCCCNC(=O)/C=C\SC(=O)c1cc2ccccc2s1 [Compound 19, N-octyl-cis-3-[(2-benzo(6)thiophene)carbonylthio]acrylamide]
pest or weed control at 100 ppm [1, 7]: 0% | pest or weed control at 100 ppm ([2]; Pyricularia oryzae): 0% | pest or weed control at 100 ppm ([3]; read-out: % Control TLB): 90% | pest or weed control at 100 ppm [4]: 0% | MIC [5]: > 250 µg/mL | pest or weed control at 100 ppm [6]: 0%

CCCCCCCCNC(=O)/C=C\SC(=O)c1c(Cl)cccc1Cl [Compound 21, N-octyl-cis-3-[(2,6-dichlorobenzoyl)thio]acrylamide]
pest or weed control at 100 ppm [1, 7]: 0% | pest or weed control at 100 ppm ([2]; Pyricularia oryzae): 0% | pest or weed control at 100 ppm ([3]; read-out: % Control TLB): 80% | pest or weed control at 100 ppm [4]: 0% | MIC [5]: > 250 µg/mL | pest or weed control at 100 ppm [6]: 0%

CCCCCCCCNC(=O)/C=C\SC(=O)CCCCCCC [Compound 23, N-octyl-cis-3-(octanoylthio)acrylamide]
pest or weed control at 100 ppm [1, 7]: 0% | pest or weed control at 100 ppm ([2]; Pyricularia oryzae): 0% | pest or weed control at 100 ppm [3, 8]: 0% | pest or weed control at 100 ppm [4]: 80% | MIC [5]: > 250 µg/mL | pest or weed control at 100 ppm [6]: 0%

CCCCCCCCNC(=O)/C=C\SC(=O)C(CC)CCCC (stereo not drawn) [Compound 27, N-octyl-cis-3-[(2-ethylhexanoyl)thio]acrylamide]
pest or weed control at 100 ppm [1, 7]: 0% | pest or weed control at 100 ppm ([2]; Pyricularia oryzae): 0% | pest or weed control at 100 ppm ([3]; read-out: % Control TLB): 90% | pest or weed control at 100 ppm [4]: 0% | pest or weed control at 100 ppm [6]: 0%

CCCCCCCCNC(=O)/C=C\SC(=O)c1c(F)cc(F)cc1F [Compound 28, N-octyl-cis-3-[(2,4,6-trifluorobenzoyl)thio]acrylamide]
pest or weed control at 100 ppm [1, 7]: 0% | pest or weed control at 100 ppm ([2]; Pyricularia oryzae): 90% | pest or weed control at 100 ppm [3, 8]: 0% | pest or weed control at 100 ppm [4]: 0% | MIC [5]: > 250 µg/mL | pest or weed control at 100 ppm [6]: 0%

CCCCCCCCNC(=O)/C=C\SC(=O)CCl [Compound 31, N-octyl-cis-3-(chloroacetylthio)acrylamide]
pest or weed control at 100 ppm [1, 7]: 0% | pest or weed control at 100 ppm ([2]; Pyricularia oryzae): 0% | pest or weed control at 100 ppm ([3]; read-out: % Control TLB): 80% | pest or weed control at 100 ppm [4]: 0% | MIC [5]: > 250 µg/mL | pest or weed control at 100 ppm [6]: 0%

CCCCCCCCNC(=O)/C=C\SC(=O)N1CCCC1 [Compound 32, N-octyl-cis-3-[(1-pyrrolidine)carbonylthio]acrylamide]
pest or weed control at 100 ppm [1, 7]: 0% | pest or weed control at 100 ppm ([2]; Pyricularia oryzae): 0% | pest or weed control at 100 ppm ([3]; read-out: % Control TLB): 80% | pest or weed control at 100 ppm [4]: 0% | MIC [5]: > 250 µg/mL | pest or weed control at 100 ppm [6]: 0%

CCCCCCCCNC(=O)/C=C\SCC(=O)OCC [Compound 34, N-octyl-cis-3-(ethoxycarbonylmethanethio)acrylamide]
pest or weed control at 100 ppm [1, 7]: 0% | pest or weed control at 100 ppm ([2]; Pyricularia oryzae): 0% | pest or weed control at 100 ppm ([3]; read-out: % Control TLB): 80% | pest or weed control at 100 ppm [4]: 90% | pest or weed control at 100 ppm [6]: 0%

CCCCCCCCNC(=O)/C=C\SC(=O)c1ccccc1CCl [Compound 35, N-octyl-cis-3-[(2-(chloromethyl)benzoyl)thio]acrylamide]
pest or weed control at 100 ppm [1, 7]: 85% | pest or weed control at 100 ppm ([2]; Pyricularia oryzae): 80% | pest or weed control at 100 ppm [3, 8]: 0% | pest or weed control at 100 ppm [4]: 0% | pest or weed control at 100 ppm [6]: 0%

CCCCCCCCNC(=O)/C=C\SC(=O)c1cccc(Br)c1 [Compound 36, N-octyl-cis-3-[(3-bromobenzoyl)thio]acrylamide]
pest or weed control at 100 ppm [1, 7]: 0% | pest or weed control at 25 ppm ([2]; Pyricularia oryzae, read-out: % Control RB): 90% | pest or weed control at 100 ppm [3, 8]: 0% | pest or weed control at 100 ppm [4]: 0% | MIC [5]: > 250 µg/mL | pest or weed control at 100 ppm [6]: 0%

CCCCCCCCNC(=O)/C=C\SC(=O)C(Cl)Cl [Compound 37, N-octyl-cis-3-(dichloroacetylthio)acrylamide]
pest or weed control at 100 ppm [1, 7]: 0% | pest or weed control at 25 ppm [2, 9]: 80% | pest or weed control at 6 ppm ([3]; read-out: % Control TLB): 90% | pest or weed control at 100 ppm [4]: 0% | MIC [5]: > 250 µg/mL | pest or weed control at 100 ppm [6]: 0%

CCCCCCCCNC(=O)/C=C\SC(C)C(=O)OC (stereo not drawn) [Compound 38]
pest or weed control at 100 ppm [1, 7]: 0% | pest or weed control at 25 ppm [2, 9]: 80% | pest or weed control at 6 ppm ([3]; read-out: % Control TLB): 80% | pest or weed control at 100 ppm [4]: 0% | pest or weed control at 100 ppm [6]: 0%

CCCCCCCCNC(=O)C=CSC(CO)COc1ccc(OC)cc1 (stereo not drawn) [Compound 39, N-octyl-cis-3-[(1-hydroxy-3-(4-methoxyphenoxy)-2-propane)thio]acrylamide]
% Control WPM ([1]; in vivo): 0 % Control | % Control RB ([2]; in vivo): 80 % Control | % Control TLB ([3]; application rate 100 ppm): 0 % Control | % Control RSB ([4]; in vivo): 0 % Control | MIC Ps.fl [5]: > 250 Ppm | % Control WLR ([6]; in vivo): 0 % Control

CCCCCCCCNC(=O)/C=C\SC(=O)c1cc(Cl)cc(Cl)c1 [Compound 54, N-octyl-cis-3-[(3,5-dichlorobenzoyl)thio]acrylamide]
pest or weed control at 100 ppm [1, 7]: 0% | pest or weed control at 100 ppm ([3]; read-out: % Control TLB): 85% | pest or weed control at 100 ppm [4]: 0% | MIC [5]: > 250 µg/mL | pest or weed control at 100 ppm [6]: 0%

CCCCCCCCNC(=O)/C=C\SC(=O)CCCCCCCCCCC#N [Compound 58, N-octyl-cis-3-[(11-cyanoundecanoyl)thio]acrylamide]
pest or weed control at 200 ppm [1, 7]: 0% | pest or weed control at 200 ppm [3, 10]: 0% | pest or weed control at 200 ppm [4]: 50% | MIC [5]: > 250 µg/mL | pest or weed control at 200 ppm [6]: 0%

CCCCCCCCNC(=O)/C=C\SC(=O)COCC [Compound 60, N-octyl-cis-3-(ethoxyacetylthio)acrylamide]
pest or weed control at 200 ppm [1, 7]: 0% | pest or weed control at 200 ppm ([2]; Pyricularia oryzae): 50% | pest or weed control at 200 ppm [3, 10]: 95% | pest or weed control at 200 ppm [4]: 0% | MIC [5]: > 250 µg/mL | pest or weed control at 200 ppm [6]: 25%

CCCCCCCCNC(=O)/C=C\SC(=O)c1ccoc1 [Compound 62, N-octyl-cis-3-(3-furoylthio)acrylamide]
pest or weed control at 12 ppm [1, 7]: 50% | pest or weed control at 200 ppm ([2]; Pyricularia oryzae): 0% | pest or weed control at 200 ppm ([3]; read-out: % Control TLB): 90% | pest or weed control at 200 ppm [4]: 0% | MIC [5]: > 250 µg/mL | pest or weed control at 100 ppm [6]: 0%

C=CCC(=O)S/C=C\C(=O)NCCCCCCCC [Compound 63, N-octyl-cis-3-[(3-butenoyl)thio]acrylamide]
pest or weed control at 200 ppm [1, 7]: 0% | pest or weed control at 200 ppm ([2]; Pyricularia oryzae): 0% | pest or weed control at 200 ppm [3, 10]: 100% | pest or weed control at 200 ppm [4]: 0% | MIC [5]: > 250 µg/mL | pest or weed control at 200 ppm [6]: 0%

C=Cc1ccc(C(=O)S/C=C\C(=O)NCCCCCCCC)cc1 [Compound 64, N-octyl-cis-3-[(4-ethenylbenzoyl)thio]acrylamide]
pest or weed control at 200 ppm [1, 7]: 0% | pest or weed control at 200 ppm ([2]; Pyricularia oryzae): 0% | pest or weed control at 200 ppm ([3]; read-out: % Control TLB): 80% | pest or weed control at 200 ppm [4]: 0% | MIC [5]: > 250 µg/mL | pest or weed control at 200 ppm [6]: 0%

CCCCCCCCNC(=O)/C=C\SC(=O)c1ccsc1 [Compound 65, N-octyl-cis-3-[(3-thiophene)carbonylthio]acrylamide]
pest or weed control at 200 ppm [1, 7]: 0% | pest or weed control at 200 ppm ([2]; Pyricularia oryzae): 0% | pest or weed control at 200 ppm [3, 10]: 95% | pest or weed control at 200 ppm [4]: 0% | MIC [5]: > 250 µg/mL | pest or weed control at 200 ppm [6]: 0%
